Test results reported in patent publication US20100003246A1, “Novel heterocyclic compounds and uses therof” (priority 2008, published 2010).

biological target: T1, b-Raf(V600E) (Homo sapiens, UniProt P15056, V600E); assay: Raf/Mek Amplified Luminescence Proximity Homogeneous Assay (Alpha Screen), b-Raf(V600E); assay type: biochemical; conditions: mutant b-Raf(V600E), read-out: mut-b-RAF (IC50 in uM)
T1 construct: made in house
Protocol: Assay buffer: 50 mM Tris, pH 7.5, 15 mM MgCl2, 0.01% BSA, 1 mM DTT Stop buffer: 60 mM EDTA, 0.01% Tween20 Bead buffer: 50 mM Tris, pH 7.5, 0.01% Tween20
b-Raf(V600E), active: Recombinant in-house material biotinylated Mek, kinase dead: Recombinant in-house material Alpha Screen detection kit PerkinElmer, #6760617R Anti phospho-MEK½ Cell signaling #9121 384 well assay plates: White Greiner plates, #781207
b-Raf(V600E) approximately 4 pM c-Raf approximately 4 nM biotinylated Mek, Kinase dead approximately 10 nM
Pre-incubation time with compounds 60 min at room temperature Reaction time 1 or 3 hours at room temperature
Raf and biotinylated Mek, kinase dead, were combined at 2× final concentrations in assay buffer (50 mM Tris, pH 7.5, 15 mM MgCl2, 0.01% BSA and 1 mM DTT) and dispensed 10 μl per well in assay plates (Greiner white 384 well assay plates #781207) containing 0.5 μl of 40× of a raf kinase inhibitor test compound diluted in 100% DMSO. The plate was incubated for 60 min at room temperature.
The Raf kinase activity reaction was started by the addition of 10 μl per well of 2×ATP diluted in assay buffer. After 3 hours (bRaf(V600E)) or 1 hour (c-Raf), the reactions were stopped with the addition of 10 μl of stop reagent (60 mM EDTA). Phosphorylated product was measured using a rabbit anti-p-MEK (Cell Signaling, #9121) antibody and the Alpha Screen IgG (Protein A) detection Kit (PerkinElmer #6760617R), by the addition of 30 μL to the well of a mixture of the antibody (1:2000 dilution) and detection beads (1:2000 dilution of both beads) in bead buffer (50 mM Tris, pH 7.5, 0.01% Tween20). The additions were carried out under dark conditions to protect the detection beads from light. A lid was placed on top of the plate and incubated for 1 hour at room temperature, then the luminescence was read on a PerkinElmer Envision instrument. The concentration of each compound for 50% inhibition (IC50) was calculated by non-linear regression using XL Fit data analysis software.
The Raf/Mek Amplified Luminescence Proximity Homogeneous Assay described was used to generate the luminescence and mutant b-Raf(V600E) IC50 data for selected Raf Kinase Inhibitors shown in Table 1 above.

T1 sequence (P15056 whole entry V600E): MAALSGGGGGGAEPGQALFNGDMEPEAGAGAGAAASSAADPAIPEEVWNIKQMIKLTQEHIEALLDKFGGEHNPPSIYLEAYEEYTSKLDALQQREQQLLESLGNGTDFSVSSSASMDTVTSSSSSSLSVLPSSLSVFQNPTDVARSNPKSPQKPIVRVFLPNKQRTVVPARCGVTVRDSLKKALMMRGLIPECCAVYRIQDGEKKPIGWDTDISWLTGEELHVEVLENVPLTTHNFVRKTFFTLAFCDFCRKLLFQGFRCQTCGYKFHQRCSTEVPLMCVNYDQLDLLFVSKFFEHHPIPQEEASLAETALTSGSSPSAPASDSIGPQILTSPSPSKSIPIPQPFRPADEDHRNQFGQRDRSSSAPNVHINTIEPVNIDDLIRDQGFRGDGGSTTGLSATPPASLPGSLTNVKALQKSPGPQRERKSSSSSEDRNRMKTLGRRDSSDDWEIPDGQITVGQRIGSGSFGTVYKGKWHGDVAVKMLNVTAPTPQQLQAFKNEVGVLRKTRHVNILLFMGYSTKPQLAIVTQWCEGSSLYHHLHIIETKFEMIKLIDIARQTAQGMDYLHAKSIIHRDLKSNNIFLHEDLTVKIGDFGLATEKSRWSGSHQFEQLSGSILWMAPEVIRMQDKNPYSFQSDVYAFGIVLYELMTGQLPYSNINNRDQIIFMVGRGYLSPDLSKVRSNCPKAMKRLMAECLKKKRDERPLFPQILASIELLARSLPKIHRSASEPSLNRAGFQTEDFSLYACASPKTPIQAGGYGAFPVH

| SMILES | IC50 [µM] |
| --- | --- |
| COc1cc(-c2[nH]c(-c3cccc(C#N)c3)nc2-c2ccncc2)cnc1N [Compound 102, 3-(5-(6-amino-5-methoxypyridin-3-yl)-4-(pyridin-4-yl)-1H-imidazol-2-yl)benzonitrile] | 0.0011 |
| COc1cc(-c2[nH]c(-c3ccc(F)cc3)nc2-c2ccoc2)cnc1N [Compound 134, 5-(2-(4-fluorophenyl)-4-(furan-3-yl)-1H-imidazol-5-yl)-3-methoxypyridin-2-amine] | 0.0014 |
| COc1cc(-c2nc(C3CCOCC3)[nH]c2-c2ccncc2)cnc1N [Compound 162, 3-methoxy-5-(5-(pyridin-4-yl)-2-(tetrahydro-2H-pyran-4-yl)-1H-imidazol-4-yl)pyridin-2-amine] | 0.0055 |
| COc1cc(-c2nc(-c3ccn(C)n3)[nH]c2-c2ccncc2)cnc1N [Compound 119, 3-methoxy-5-(2-(1-methyl-1H-pyrazol-3-yl)-5-(pyridin-4-yl)-1H-imidazol-4-yl)pyridin-2-amine] | 0.0019 |
| COC(=O)N[C@@H](C)CNc1nccc(-c2nc(C(C)(C)C)[nH]c2-c2cnc3[nH]cc(C(F)(F)F)c3c2)n1 [Compound 263, (S)-methyl 1-(4-(2-tert-butyl-5-(3-(trifluoromethyl)-1H-pyrrolo[2,3-b]pyridin-5-yl)-1H-imidazol-4-yl)pyrimidin-2-ylamino)propan-2-ylcarbamate] | 0.065 |
| COc1cc(-c2[nH]c(-c3cccc(C(N)=O)c3)nc2-c2ccncc2)cnc1N [Compound 122, 3-(5-(6-amino-5-methoxypyridin-3-yl)-4-(pyridin-4-yl)-1H-imidazol-2-yl)benzamide] | 0.0021 |
| COc1cc(-c2nc(C(C)C)[nH]c2-c2ccncc2)cnc1N [Compound 140, 5-(2-isopropyl-5-(pyridin-4-yl)-1H-imidazol-4-yl)-3-methoxypyridin-2-amine] | 0.0016 |
| COC(=O)N[C@@H](C)CNc1nccc(-c2nc(C(C)(C)C)[nH]c2-c2cnc3[nH]ccc3c2)n1 [Compound 262, (S)-methyl 1-(4-(2-tert-butyl-5-(1H-pyrrolo[2,3-b]pyridin-5-yl)-1H-imidazol-4-yl)pyrimidin-2-ylamino)propan-2-ylcarbamate] | 0.0002 |
| COc1cc(-c2[nH]c(-c3ccc(F)cc3)nc2-c2cncs2)cnc1N [Example 11, 5-(2-(4-fluorophenyl)-5-(thiazol-5-yl)-1H-imidazol-4-yl)-3-methoxypyridin-2-amine] | 0.0365 |
| COc1cc(-c2[nH]c(-c3ccc(F)cc3)nc2-c2ccnc(N[C@@H]3CCN(S(C)(=O)=O)C3)n2)cnc1N [Compound 199, (R)-4-(5-(6-amino-5-methoxypyridin-3-yl)-2-(4-fluorophenyl)-1H-imidazol-4-yl)-N-(1-(methylsulfonyl)pyrrolidin-3-yl)pyrimidin-2-amine] | 0.015 |

Now from value to compound:

| IC50 [µM] | SMILES |
| --- | --- |
| 0.0002 | COc1cc(-c2nc(-c3ccc(F)cc3)[nH]c2-c2ccnc(NC[C@H](C)NC(=O)[C@@H](C)OC)n2)cnc1N [Compound 196, (R)-N-((S)-1-(4-(4-(6-amino-5-methoxypyridin-3-yl)-2-(4-fluorophenyl)-1H-imidazol-5-yl)pyrimidin-2-ylamino)propan-2-yl)-2-methoxypropanamide] |
| 0.0001 | COc1cc(-c2nc(-c3ccc(F)cc3)[nH]c2-c2ccnc(NC[C@H](C)NS(C)(=O)=O)n2)cnc1N [Compound 195, (S)-N-(1-(4-(4-(6-amino-5-methoxypyridin-3-yl)-2-(4-fluorophenyl)-1H-imidazol-5-yl)pyrimidin-2-ylamino)propan-2-yl)methanesulfonamide] |
| 0.0001 | COc1cc(-c2[nH]c(-c3ccccc3)nc2-c2ccnc(NCCNS(C)(=O)=O)n2)cnc1N [Compound 99, N-(2-(4-(5-(6-amino-5-methoxypyridin-3-yl)-2-phenyl-1H-imidazol-4-yl)pyrimidin-2-ylamino)ethyl)methanesul-fonamide] |
| 0.0001 | COc1cc(-c2nc(C(C)(C)C)oc2-c2ccnc(NCC(C)C)c2)cnc1N [Compound 246, 4-(4-(6-amino-5-methoxypyridin-3-yl)-2-tert-butyloxazol-5-yl)-N-isobutylpyridin-2-amine] |
